Experiments:
Rac1 = experiment: In vivo dose finding: Rac1 mRNA in the NAc; parameters: species or system mouse; details: 50 ng to 5 mg/kg-BW/day in drinking water, 2 weeks; strongest at 500 ng and 5 µg/kg-BW/day
Method: We then initiated dose response and safety studies in mice to determine testing dosages and safety of DHCA and Mal-gluc. C57BL/6 mice were treated with either DHCA (doses ranging from 50 µg to 50 mg/kg-BW/day) or Mal-gluc (doses ranging from 50 ng to 5 mg/kg-BW/day) for 2 weeks to simulate long-term administration. Mice treated with DHCA were challenged with intraperitoneal (i.p.) injection of 0.4 mg/kg-BW LPS and plasma levels of IL-6 were measured 6 h post injection. […] Following common discovery-stage practices, we measured the plasma levels of alkaline phosphatase (ALP), aspartate aminotransferase (AST), and alanine aminotransferase (ALT) for liver function and blood urea nitrogen (BUN) for renal function.
Male C57BL/6 J mice (8-week-old) were placed on a polyphenol-free AIN-93M diet and treated with various doses of DHCA (vehicle, 50 µg, 500 µg, 5 mg, and 50 mg/kg-BW/day), delivered through their drinking water for two weeks. […]
Total RNA from MSN-enriched cultures or brain NAc was isolated using the RNeasy Mini Kit (Qiagen, Valencia, CA, USA) and reverse transcribed. Gene expression was measured in four replicates by quantitative RT-PCR using Maxima SYBR Green master mix (Fermentas) in ABI Prism 7900HT. […]

IL-6 = experiment: LPS-induced IL-6 production in PBMCs (screening, dose response); format: cell-based, mouse
From the text: BDPP contains a variety of polyphenols. Orally consumed polyphenols are typically bioavailable in various organs and tissues as metabolites (phase II polyphenol conjugates and phenolic acids) following xenobiotic metabolism and gastrointestinal microbiome fermentation. It is possible that some metabolites may counteract the positive effect of the others. Therefore, if supplied as BDPP, the overall benefits might be reduced due to potential ‘cancellation’ effects. By identifying individual metabolites that selectively target key pathological mechanisms (e.g., Rac1 and IL-6) we can greatly improve the efficacy. We and others recently identified 21 BDPP-derived phenolic metabolites that accumulate in blood and/or in the CNS (14 polyphenolic metabolites and 7 phenolic acids, Supplementary Table 1)[25], [28], [33], among which 14 are currently accessible, [34]. We initiated a high-throughput screen of these metabolites for their ability to modulate IL-6 and Rac1. Peripheral blood mononuclear cells (PBMCs) isolated from C57BL/6 mice were pretreated with plasma bioavailable metabolites (Supplementary Table 1) for 16 h followed by stimulation with lipopolysaccharide (LPS) for 16 h. […] In parallel studies, we screened 9 brain bioavailable metabolites using E18 MSN-enriched primary culture.
Whole blood from mice was mixed with complete RPMI media and laid over the Ficoll-Paque Plus (GE Healthcare, Sweden), centrifuged at 2200 r.p.m. for 15 min. The buffy coat containing PBMCs were isolated, washed once with BEP (0.5% BSA, 2 mM EDTA in PBS) and plated out in a 24-well plate at 5 × 10^5/well in culture medium RPMI-1640 supplemented with 20% horse serum, 10% FBS, 2 mM L-glutamine, 25 mM Hepes and 100 U/ml penicillin/streptomycin. PBMCs were treated with various phenolic acids for 16 h and challenged with 7.5 µg/ml LPS. Supernatant was collected by centrifugation following 16 h of LPS stimulation and the levels of IL-6 were measured using the Mouse IL-6 Quantikine ELISA Kit from R & D System.

| Compound | Rac1 mRNA in the NAc (Rac1) | primary screening, LPS-induced IL-6 production (IL-6; 14 plasma bioavailable metabolites screened) | IC50 (IL-6; Mus musculus, PBMC, PBMCs pretreated 16 h, then LPS 16 h, read-out: calculated IC50, reducing LPS-induced IL-6 production) [µM] | EC50 (IL-6; Mus musculus, PBMC, dose response in PBMCs following LPS stimulation, read-out: EC50 (IL-6 response), Fig. 2b) [µM] |
| --- | --- | --- | --- | --- |
| COc1cc(-c2[o+]c3cc(O)cc(O)c3cc2O[C@@H]2O[C@H](CO)[C@@H](O)[C@H](O)[C@H]2O)cc(OC)c1O [Mal-gluc] | dose-response increase of Rac1 expression |  |  |  |
| O=C(O)CCc1ccc(O)c(O)c1 [DHCA, 3(3,4-dihydroxy-phenyl) propionic acid] |  | most effective in reducing LPS-induced IL-6 production | 17.7 | 17.7 |

Reference: paper PMC5797143, “Epigenetic modulation of inflammation and synaptic plasticity promotes resilience against stress in mice” (Nature Communications, 2018)
